Laboratory results as given in publication PMC6136348, “In the quest for new targets for pathogen eradication: the adenylosuccinate synthetase from the bacterium Helicobacter pylori” (Journal of Enzyme Inhibition and Medicinal Chemistry, 2018).

What was measured:
[1] = molecular target: T1, adenylosuccinate synthetase (AdSS) (Helicobacter pylori, UniProt P56137); experiment: spectrophotometric enzyme assay at […] nm, competitive inhibition fit and Dixon plot (reaction product tested as inhibitor); format: biochemical
T1 construct: gene purA; recombinant protein expressed from pET21b-HPpurA
T1 sequence (P56137 1-411): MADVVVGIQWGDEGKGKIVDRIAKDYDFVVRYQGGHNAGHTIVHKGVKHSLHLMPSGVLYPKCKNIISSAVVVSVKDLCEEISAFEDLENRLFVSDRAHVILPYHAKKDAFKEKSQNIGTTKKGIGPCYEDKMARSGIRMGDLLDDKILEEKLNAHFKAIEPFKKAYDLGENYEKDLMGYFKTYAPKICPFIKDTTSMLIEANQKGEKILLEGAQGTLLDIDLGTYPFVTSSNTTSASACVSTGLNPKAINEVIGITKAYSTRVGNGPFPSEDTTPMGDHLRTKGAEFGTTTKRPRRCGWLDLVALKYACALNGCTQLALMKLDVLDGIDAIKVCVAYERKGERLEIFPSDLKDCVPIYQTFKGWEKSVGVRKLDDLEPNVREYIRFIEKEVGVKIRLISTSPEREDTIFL

[2] = molecular target: T1, adenylosuccinate synthetase (AdSS); experiment: spectrophotometric enzyme assay at […] nm, competitive inhibition fit and Dixon plot; format: biochemical

SMILES | Ki [1] [nM] | Ki [2] [nM]
O=C(O)C[C@H](Nc1ncnc2c1ncn2[C@@H]1O[C@H](COP(=O)(O)O)[C@@H](O)[C@H]1O)C(=O)O [adenylosuccinate] | 3500 ± 300 | –
O=CN(O)CC(=O)O [hadacidin] | – | 190 ± 20
